Patent US20040214867A1, “Quaternary salts of n-substituted cyclic or acyclic amines as pharmaceuticals” (priority 2003, published 2004)

System: citric acid-induced cough responses
Assay: Citric acid-induced cough in conscious guinea-pigs (aerosol pre-treatment)
Assay type: in vivo, guinea-pig
Details: aerosol 10.0 mg/ml immediately before exposure to citric acid (1M); compared with control (procaine) pre-treated guinea pigs; 15 minute observation period
From the text: The following method is one of the general methods available to determine the antitussive activity of the compounds of the present invention.
Male albino Dunkin-Hartley strain guinea-pigs (weight 300-400 g) can be obtained from various commercial suppliers.
The method is a modification of that described by Adcock J. J., Schneider C. and Smith T. W., “Effects of Morphine and a Novel Opioid Pentapeptide BW443C, on Cough, Nociception and Ventilation in the Unanaesthetized Guinea-pig”, Br. J. Pharmacol., 93, 93-100 (1988). […]
Cylinder air is introduced into the exposure chamber at a flow rate of 1 liter/min maintained by a needle valve and monitored by a rotameter. […]
Cough responses are induced by exposure to an aerosol of citric acid (1M) for 10 minutes. Animals are continuously monitored by trained observer, and the number of coughs are counted during a 15 minute period from commencement of the citric acid aerosol administration. […]
The three types of response are differentiated primarily by sound and visual observation. […] Each cough is marked on the Grass polygraph paper trace, and from these record numbers, frequency and time of onset of coughs are determined. […]
Quantities of drugs are weighed out and dissolved in a vehicle. […] The sequence of pre-treatment administration is determined according to a 4×4 Latin Square design. […]

`CC[N+](C)(CC)CCOC(=O)c1ccc(N)cc1.[I-]` [N-methyl-procaine iodide, 2-[(4-Aminobenzoyl)oxy]-N,N-diethyl-N-methylethanaminium iodide] was tested, and the “inhibition of cough responses” value was over 50%.
